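Dose response: 5 concentrations. Exposure: 48 h. Format: 96-well plates. Endpoint: linear interpolation; highest concentration if not reached. Definition used: TGI = concentration required for complete inhibition of growth.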
Experiments:
Test in all cases: NCI anticancer screen, dose series, 48 h
OVCAR-5 ovarian = test system: OVCAR-5 ovarian
RXF 393 renal = test system: RXF 393 renal
T-47D breast = test system: T-47D breast
MCF7 breast = test system: MCF7 breast
MDA-MB-231 breast = test system: MDA-MB-231 breast
MDA-N = test system: MDA-N
OVCAR-8 ovarian = test system: OVCAR-8 ovarian
UO-31 renal = test system: UO-31 renal
786-0 renal = test system: 786-0 renal
MALME-3M melanoma = test system: MALME-3M melanoma
NCI-H522 lung = test system: NCI-H522 lung
KM12 colon = test system: KM12 colon
COLO 205 colon = test system: COLO 205 colon
M14 melanoma = test system: M14 melanoma
SR leukemia = test system: SR leukemia
A549 NSCLC = test system: A549 NSCLC
UACC-257 melanoma = test system: UACC-257 melanoma
SK-MEL-28 melanoma = test system: SK-MEL-28 melanoma
DU-145 prostate = test system: DU-145 prostate
HCT-15 colon = test system: HCT-15 colon
MOLT-4 leukemia = test system: MOLT-4 leukemia
BT-549 breast = test system: BT-549 breast
SNB-19 CNS = test system: SNB-19 CNS
OVCAR-4 ovarian = test system: OVCAR-4 ovarian
SK-MEL-5 melanoma = test system: SK-MEL-5 melanoma
LOX IMVI melanoma = test system: LOX IMVI melanoma
K-562 leukemia = test system: K-562 leukemia
HT29 colon = test system: HT29 colon
SF-268 CNS = test system: SF-268 CNS
NCI-H460 lung = test system: NCI-H460 lung
SK-MEL-2 melanoma = test system: SK-MEL-2 melanoma
NCI/ADR-RES ovarian = test system: NCI/ADR-RES ovarian
HL-60(TB) leukemia = test system: HL-60(TB) leukemia
UACC-62 melanoma = test system: UACC-62 melanoma
RPMI-8226 leukemia = test system: RPMI-8226 leukemia
U251 CNS = test system: U251 CNS
IGROV1 ovarian = test system: IGROV1 ovarian
OVCAR-3 ovarian = test system: OVCAR-3 ovarian
EKVX NSCLC = test system: EKVX NSCLC
HCT-116 colon = test system: HCT-116 colon
PC-3 prostate = test system: PC-3 prostate
HS 578T breast = test system: HS 578T breast
HOP-62 NSCLC = test system: HOP-62 NSCLC
CAKI-1 renal = test system: CAKI-1 renal
SNB-75 CNS = test system: SNB-75 CNS
TK-10 renal = test system: TK-10 renal
SF-539 CNS = test system: SF-539 CNS
SK-OV-3 ovarian = test system: SK-OV-3 ovarian
ACHN renal = test system: ACHN renal
A498 renal = test system: A498 renal
MDA-MB-435 = test system: MDA-MB-435
CCRF-CEM leukemia = test system: CCRF-CEM leukemia
SF-295 CNS = test system: SF-295 CNS
SN12C renal = test system: SN12C renal
NCI-H23 lung = test system: NCI-H23 lung
SW-620 colon = test system: SW-620 colon

Compound: C/C(=N\Nc1nc2ccccc2o1)c1ccc2ccccc2n1
- TGI (OVCAR-5 ovarian): > 100 µM
- TGI (RXF 393 renal): 57.5 µM
- TGI (T-47D breast): 3.87 µM
- TGI (MCF7 breast): > 100 µM
- TGI (MDA-MB-231 breast): > 100 µM
- TGI (MDA-N): > 100 µM
- TGI (OVCAR-8 ovarian): 63.5 µM
- TGI (UO-31 renal): 14.4 µM
- TGI (786-0 renal): 45.7 µM
- TGI (MALME-3M melanoma): 52.5 µM
- TGI (NCI-H522 lung): 5.83 µM
- TGI (KM12 colon): > 100 µM
- TGI (COLO 205 colon): > 100 µM
- TGI (M14 melanoma): > 100 µM
- TGI (SR leukemia): 3.72 µM
- TGI (A549 NSCLC): > 100 µM
- TGI (UACC-257 melanoma): > 100 µM
- TGI (SK-MEL-28 melanoma): > 100 µM
- TGI (DU-145 prostate): 37.3 µM
- TGI (HCT-15 colon): 59.9 µM
- TGI (MOLT-4 leukemia): > 100 µM
- TGI (BT-549 breast): > 100 µM
- TGI (SNB-19 CNS): > 100 µM
- TGI (OVCAR-4 ovarian): 5.59 µM
- TGI (SK-MEL-5 melanoma): 14.3 µM
- TGI (LOX IMVI melanoma): > 100 µM
- TGI (K-562 leukemia): > 100 µM
- TGI (HT29 colon): 95.9 µM
- TGI (SF-268 CNS): 49.2 µM
- TGI (NCI-H460 lung): 30.6 µM
- TGI (SK-MEL-2 melanoma): 15.2 µM
- TGI (NCI/ADR-RES ovarian): 26.5 µM
- TGI (HL-60(TB) leukemia): 6.47 µM
- TGI (UACC-62 melanoma): 44.4 µM
- TGI (RPMI-8226 leukemia): 6.41 µM
- TGI (U251 CNS): 87.2 µM
- TGI (IGROV1 ovarian): 5.32 µM
- TGI (OVCAR-3 ovarian): 3.03 µM
- TGI (EKVX NSCLC): 9.23 µM
- TGI (HCT-116 colon): 20.1 µM
- TGI (PC-3 prostate): 4.94 µM
- TGI (HS 578T breast): > 100 µM
- TGI (HOP-62 NSCLC): 58.7 µM
- TGI (CAKI-1 renal): 3.93 µM
- TGI (SNB-75 CNS): 28 µM
- TGI (TK-10 renal): 68.5 µM
- TGI (SF-539 CNS): > 100 µM
- TGI (SK-OV-3 ovarian): > 100 µM
- TGI (ACHN renal): 10.6 µM
- TGI (A498 renal): 8.64 µM
- TGI (MDA-MB-435): > 100 µM
- TGI (CCRF-CEM leukemia): 5.77 µM
- TGI (SF-295 CNS): 56.5 µM
- TGI (SN12C renal): 56.8 µM
- TGI (NCI-H23 lung): 70.7 µM
- TGI (SW-620 colon): > 100 µM
